Experimental data from patent US8178528B2, “Histamine H3 receptor agents, preparation and therapeutic uses” (Eli Lilly and Company, priority 2005, dated 2012).

Molecular target: T1, H3R membranes (H3R8-expressing HEK293 cell line) (Homo sapiens, UniProt Q9Y5N1)
T1 construct: expressed in transfected cells; membranes
Assay: [35S] GTP gamma [S] binding assay
Assay type: biochemical
Details: agonist R(-)alpha methylhistamine
Protocol: Membranes isolated as described in (Preparation of Histamine Receptor Subtype Membranes) are used in a [35S]GTPχS functional assay. Binding of [35S]GTPχS to membranes indicates agonist activity. Compounds of the invention of Formula I or Formula II are tested for their ability to inhibit binding in the presence of agonists. Alternately, the same transfected cell lines are used for a cAMP assay wherein H3R agonists inhibit forskolin-activated synthesis of cAMP. Compounds of Formula I or Formula II are tested for their ability to permit forskolin-stimulated cAMP synthesis in the presence of agonist.
cDNA for the human histamine 3 receptor is cloned and expressed as described in (A. Preparation H1R membranes), above. Transfected cells are selected using G418 ([…]), grown, and tested for histamine binding by the SPA described above. For total binding, cells are assayed in a SPA reaction described above containing 50 mM Tris-HCL (assay buffer), pH 7.6, 1 mg wheat germ agglutinin SPA beads (Amersham Pharmacia Biotech, #RPNQ0001), and 1 nM (3H)-n-alpha-methylhistamine (NEN, NET1027) (total volume per well=200 μl). Thioperimide is added to determine non-specific binding. […]
Antagonist activity of selected compounds is tested for inhibition of [35S] […] Plates are counted in Wallac Trilux 1450 Microbeta scintillation counter for 1 minute. […]

T1 sequence (Q9Y5N1 whole entry): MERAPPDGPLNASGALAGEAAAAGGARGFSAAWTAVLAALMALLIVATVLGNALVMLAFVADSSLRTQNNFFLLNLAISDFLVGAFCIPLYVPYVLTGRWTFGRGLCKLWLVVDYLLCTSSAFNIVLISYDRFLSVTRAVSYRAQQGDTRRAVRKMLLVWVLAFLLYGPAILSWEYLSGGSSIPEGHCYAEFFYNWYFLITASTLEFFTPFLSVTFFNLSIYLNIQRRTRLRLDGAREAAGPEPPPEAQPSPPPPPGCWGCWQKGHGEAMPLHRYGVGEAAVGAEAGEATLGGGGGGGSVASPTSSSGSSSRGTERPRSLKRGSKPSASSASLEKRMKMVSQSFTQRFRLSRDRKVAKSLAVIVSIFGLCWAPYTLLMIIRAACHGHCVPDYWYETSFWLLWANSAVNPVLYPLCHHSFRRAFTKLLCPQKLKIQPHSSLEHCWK

| Ki | SMILES |
| --- | --- |
| 0.047 µM | O=C(c1ccc(C2CCCCC2)cc1)N1CCC[C@H]1CN1CCCC1 |
| 0.012 µM | O=C(c1ccc(S(=O)(=O)c2ccccc2)cc1)N1CCC[C@H]1CN1CCCC1 |
